Assay results taken from patent US20230295086A1, “NOVEL PSILOCIN DERIVATIVES HAVING PRODRUG PROPERTIES” (COMPASS […], priority 2020, published 2023).
Marks after values point to notes of the source that are not given here.

What was measured:
[1] = Pharmacokinetics in the mouse (plasma psilocin); assay type: in vivo, male C57BL/6J mice; settings: IV, 0.3 mg/kg
Procedure: 27 male C57BL/6J mice weighing 22-25 g at time of purchase (Charles River UK) were group housed (3 s) in polypropylene cages. Mice were maintained on a normal phase 12 hr light-dark cycle (lights on from 07:00-19:00) with ad libitum access to standard pelleted diet (Envigo 2018) and filtered tap water. The holding room was maintained at 21±4° C. with a relative humidity of 55±15%.
Mice were weighed on the day of dosing and identified by a tail mark using a permanent marker pen. Food was not withdrawn on the day of dosing. […] The remaining animals were divided into two cohorts, with animals in the first cohort receiving a single oral dose of one of the test compounds and animals in the second cohort receiving a single intravenous dose (in a lateral tail vein) of one of the test compounds. Following treatment, animals dosed orally were bled by venesection from the lateral tail vein at 5, 15, 30, 45, 60, 120, and 240 minutes post-dosing. Animals dosed intravenously were bled by venesection from the opposite lateral tail vein at the same timepoints. […] All compounds were formulated in saline and dosed in a volume of 5 ml/kg.
25 μl of blood was collected per animal per timepoint. […] Psilocin levels within samples were determined using LC-MS/MS. All pharmacokinetic parameters were calculated manually. […]

[2] = biological target: T1, serotonin 2A (5-HT2A) receptor (Mus musculus, UniProt P35363); test: Head twitch response (HTR) in mice; assay type: in vivo, male C57BL/6J mice; settings: oral gavage 0.3 mg/kg
T1 construct: tissue Charles River UK; host or cells: whole living male C57BL/6J mice (in vivo, oral gavage)

[3] = Shake flask Log D assay (Example 11); assay type: physicochemical; settings: 1-Octanol / 100 mM PB pH 7.4, shake flask, LC-MS/MS; test compound as hydrochloride
Procedure: Test and control compounds were diluted to 10 mM in DMSO. 2 μl of each stock solution was aliquoted into tubes in duplicate. 1-Octanol saturated phosphate buffer (PB) (pH 7.4) was prepared by adding 1-Octanol into 100 ml of 100 mM PB (7.4). PB saturated 1-Octanol was prepared by adding 10 ml of 100 mM PB (7.4) into 100 ml of 1-Octanol. 149 μl of each solution was aliquoted into the corresponding tubes. These were then mixed vigorously for 2 minutes and shaken (800 rpm) at room temperature for one hour. The appropriate volume of buffer and 1-Octanol layer samples was aliquoted and diluted, before detection using LC-MS/MS.
Log D was calculated according to the following equation: […]

[4] = Kinetic solubility assay (Example 11); settings: 50 mM PB pH 7.4, target 200 μM, 24 hours shaking at room temperature, UPLC; test compound as hydrochloride
Procedure: Test and control compounds were diluted to 10 mM in DMSO and then further diluted 1 in 50 in 50 mM PB (pH 7.4) to a target concentration of 200 μM. Samples were vortexed for at least 2 minutes and then left to shake (800 rpm) at room temperature for 24 hours. Visual appearance was assessed before centrifugation and injection into a UPLC system to measure concentration. […] Each compound was tested in duplicate.

[5] = Intake study: serum concentrations after oral ingestion by two volunteers; settings: for c(Psilocin): study 2
Procedure: Two volunteers (1 M, 1 F) ingested about 1 mg of each one of P1 and M1 (Study 1) and P2 and M2 (Study 2) in gelatin capsules (exact amounts in Tables 3 and 4). One blood sample was collected prior to ingestion of the substances and served as a zero control. After ingestion samples were collected for about 8 h with increasing time intervals between sample taking (exact protocol in Tables 4 and 5). […] The obtained sera were transferred in plastic tubes and NaF (ca. 30 mg) and ascorbic acid (ca. 5 mg) were added to increase analytes stability.
200 μL serum were spiked with an internal standard solution (10 μL) and ACN (600 μL) was added to precipitate soluble proteins. Before mixing thoroughly ammonium formate (10 M, 200 μL) was added separate the aqueous from the organic phase. After centrifugation (6 min, 4,000×g), 500 μL of the organic phase were transferred into another vial and evaporated to dryness at 40° C. under a gentle stream of nitrogen. Samples were reconstituted in 100 μL mobile phase (A/B, 90/10, v/v) and used for analysis. For quantification a blank sample and a six point calibration (0.5, 1.0, 2.0, 5.0, 10, 20 ng/mL) in calf serum were prepared as described above.
The HPLC-MS system consisted of a Nexera X2 UHPLC system composed of three LC-30AD pumps, a DGU-30A3 degasser, a SIL-30AC autosampler, a CTO-10AS column oven and a CBM-20A controller (Shimadzu, Duisburg, Germany) coupled to a QTRAP 6500plus triple quadrupole linear ion trap mass spectrometer equipped with a TurbolonSpray Interface (Sciex, Darmstadt, Germany). The MS was operated in positive electrospray ionization mode. Data acquisition was performed in scheduled multiple reaction monitoring mode (detection window: 60 s) using Analyst software (version 1.7). MS parameters (declustering potential, entrance potential, collision energy, and collision cell exit potential) were optimized for all substances to obtain the best possible signal intensities (summary of the MRM parameters are given in Table 5). Ion source temperature and ion source voltage were set to 550° C. and +5500 V, respectively. Dwell time was 20 ms for every MRM transition. Curtain gas (N2) pressure was 35 psi, ion source gas 1 and 2 (compressed air) pressure were 50 and 60 psi, respectively, and collision gas (N2) pressure was set to “high.” Chromatographic separation was performed on a Kinetex® biphenyl column (100×2.1 mm, 2.6 μm particle size, Phenomenex, Aschaffenburg, Germany) with a corresponding guard column (SecurityGuard™ ULTRA Cartridges UHPLC Biphenyl for 2.1 mm ID columns, Phenomenex, Aschaffenburg, Germany). The autosampler and the column oven temperature were set to 10° C. and 40° C., respectively. The injection volume was 10 μL.

Micro shake flask Log D = settings: Octanol:PBS 1:9, pH 7.4, 10 μM, six replicates; novel compounds as hemifumarate
Procedure: 6 replicates of each test compound were incubated at 10 μM in a 1:9 ratio of Octanol: PBS at pH 7.4. Following a two hour incubation at room temperature shaking at 600 rpm, the incubation plate was centrifuged for 15 minutes to separate the layers and then two aliquots were removed from the PBS layer. The first was left neat and the second was diluted 10-fold to give dilute samples. Internal standards were added to both the calibration curve and the PBS incubation samples for analysis on LC MS/MS.
All 6 replicates of the neat samples were averaged to give one value for each, with the same calculation performed for the dilute sample values.

[6] = Stability of psilocin carbonates in 1% HCl; assay type: physicochemical; settings: 37° C., approximately 26 hours, LC-MS
Procedure: 4 mg of each test compound was diluted in 2 ml distilled water to give a solution of 2 mg/ml. 2 ml of test compound solutions were then added to 2 ml of 2% (v/v) HCl in distilled water, yielding a final HCl concentration of […] (pH 0.5). Test solutions were incubated at 37° C. with continuous stirring for approximately 26 hours. Concentrations of parent compound and psilocin were analyzed at various timepoints using LC-MS. Concentrations of both parent prodrug and psilocin liberated were expressed relative to the starting concentration of parent prodrug.

[7] = serum, oral intake of about 1 mg prodrug, mean of 2 volunteers

T1 sequence (P35363 whole entry): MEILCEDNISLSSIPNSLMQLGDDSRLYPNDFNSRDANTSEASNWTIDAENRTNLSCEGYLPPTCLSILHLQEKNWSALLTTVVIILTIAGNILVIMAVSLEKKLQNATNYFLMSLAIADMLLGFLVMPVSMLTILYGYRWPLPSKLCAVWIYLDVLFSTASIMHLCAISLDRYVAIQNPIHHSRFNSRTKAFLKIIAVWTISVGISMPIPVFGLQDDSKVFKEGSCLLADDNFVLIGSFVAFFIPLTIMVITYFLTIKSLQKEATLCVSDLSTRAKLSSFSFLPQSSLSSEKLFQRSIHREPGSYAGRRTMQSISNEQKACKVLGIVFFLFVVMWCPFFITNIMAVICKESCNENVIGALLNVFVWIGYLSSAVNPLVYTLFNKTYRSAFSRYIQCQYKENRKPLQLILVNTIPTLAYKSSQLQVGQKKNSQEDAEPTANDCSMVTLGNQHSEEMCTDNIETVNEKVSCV

CN(C)CCc1c[nH]c2cccc(OC(=O)OCc3ccccc3)c12 [Psilocin-4-yl-benzylcarbonate, psilocin-4-yl benzyl carbonate]
Cmax (psilocin) [1]: approximately double that of psilocybin | Mean number of head twitches 0-15 mins ([2]; N = 8): 2.63 | Mean number of head twitches 30-45 mins ([2]; N = 8): 1.88 | Mean number of head twitches 45-60 mins ([2]; N = 8): 1.13 | Mean number of head twitches Total 0-60 mins ([2]; N = 8): 8.2 | Mean number of head twitches 15-30 mins ([2]; N = 8, 0.3 mg/kg): 4.13 | Mean number of head twitches 15-30 mins ([2]; N = 8, listed as Psilocin-4-yl-benylcarbonate, 0.3 mg/kg): of similar magnitude to that induced by psilocybin | Mean LogD [3]: 2.19 | Detected concentration [4]: 230 µM

CN(C)CCc1c[nH]c2cccc(OC(=O)OC(C)(C)C)c12 [Psilocin-4-yl-tert-butylcarbonate, psilocin-4-yl tert-butyl carbonate]
Mean number of head twitches 0-15 mins ([2]; N = 8): 3 | Mean number of head twitches 15-30 mins ([2]; N = 8): 2 | Mean number of head twitches 30-45 mins ([2]; N = 8): 1.5 | Mean number of head twitches 45-60 mins ([2]; N = 8): 0.13 | Mean number of head twitches Total 0-60 mins ([2]; N = 8): 6.48 | Parent prodrug itself in serum (not detected, LOD) ([5]; serum after oral ingestion of about 1 mg): < 0.07 ng/mL | Cmax of psilocin [5, 7]: 1.13 ± 0.01 ng/mL | Tmax of psilocin [5, 7]: 1.5 ± 0.933 h | elimination constant kel of psilocin [5, 7]: 0.0043 min⁻¹ | elimination half life t1/2 of psilocin [5, 7]: 2.67 h | c(Psilocin) ([5]; serum, test person A, oral P2 0.98 mg salt, 4 min, below LOQ, extrapolated): 0.16* ng/mL | c(Psilocin) ([5]; serum, test person A, oral P2 0.98 mg salt, 12 min, below LOQ, extrapolated): 0.16* ng/mL | c(Psilocin) ([5]; serum, test person A, oral P2 0.98 mg salt, 23 min, below LOQ, extrapolated): 0.21* ng/mL | c(Psilocin) ([5]; serum, test person A, oral P2 0.98 mg salt, 34 min, below LOQ, extrapolated): 0.22* ng/mL | c(Psilocin) ([5]; serum, test person A, oral P2 0.98 mg salt, 50 min): 0.43 ng/mL | c(Psilocin) ([5]; serum, test person A, oral P2 0.98 mg salt, 77 min): 0.57 ng/mL | c(Psilocin) ([5]; serum, test person A, oral P2 0.98 mg salt, 113 min): 0.99 ng/mL | c(Psilocin) ([5]; serum, test person A, oral P2 0.98 mg salt, 130 min): 1.14 ng/mL | c(Psilocin) ([5]; serum, test person A, oral P2 0.98 mg salt, 165 min): 0.96 ng/mL | c(Psilocin) ([5]; serum, test person A, oral P2 0.98 mg salt, 205 min): 0.83 ng/mL | c(Psilocin) ([5]; serum, test person A, oral P2 0.98 mg salt, 270 min): 0.66 ng/mL | c(Psilocin) ([5]; serum, test person A, oral P2 0.98 mg salt, 335 min): 0.47 ng/mL | c(Psilocin) ([5]; serum, test person A, oral P2 0.98 mg salt, 395 min): 0.40 ng/mL | c(Psilocin) ([5]; serum, test person A, oral P2 0.98 mg salt, 458 min, below LOQ, extrapolated): 0.30* ng/mL | c(Psilocin) ([5]; serum, test person B, oral P2 1.05 mg salt, 6 min, below LOQ, extrapolated): 0.24* ng/mL | c(Psilocin) ([5]; serum, test person B, oral P2 1.05 mg salt, 13 min, below LOQ, extrapolated): 0.26* ng/mL | c(Psilocin) ([5]; serum, test person B, oral P2 1.05 mg salt, 22 min): 0.48 ng/mL | c(Psilocin) ([5]; serum, test person B, oral P2 1.05 mg salt, 34 min): 0.75 ng/mL | c(Psilocin) ([5]; serum, test person B, oral P2 1.05 mg salt, 50 min): 1.12 ng/mL | c(Psilocin) ([5]; serum, test person B, oral P2 1.05 mg salt, 77 min): 1.12 ng/mL | c(Psilocin) ([5]; serum, test person B, oral P2 1.05 mg salt, 100 min): 0.92 ng/mL | c(Psilocin) ([5]; serum, test person B, oral P2 1.05 mg salt, 127 min): 0.73 ng/mL | c(Psilocin) ([5]; serum, test person B, oral P2 1.05 mg salt, 165 min): 0.53 ng/mL | c(Psilocin) ([5]; serum, test person B, oral P2 1.05 mg salt, 205 min): 0.51 ng/mL | c(Psilocin) ([5]; serum, test person B, oral P2 1.05 mg salt, 270 min): 0.40 ng/mL | c(Psilocin) ([5]; serum, test person B, oral P2 1.05 mg salt, 331 min): 0.33 ng/mL | c(Psilocin) ([5]; serum, test person B, oral P2 1.05 mg salt, 394 min, below LOQ, extrapolated): 0.30* ng/mL | c(Psilocin) ([5]; serum, test person B, oral P2 1.05 mg salt, 454 min, below LOQ, extrapolated): 0.29* ng/mL | Mean LogD (Micro shake flask Log D): 1.50 | Degradation of parent compound / conversion to psilocin [6]: rapid and complete chemical degradation to psilocin within approximately four hours
